In ChEMBL document CHEMBL5370601, “Synthesis and Binding Mode Predictions of Novel Siglec-7 Ligands” (J Med Chem, 2023) one finds solubility and Ratio IC50 data, which are given here for ten compounds.

Data set [1] in a line: Solubility in water. The class given is physicochemical. The settings on record: buffer.
Data set [2] is described as follows: Solubility in methanol. The class given is physicochemical.
The target of data set [3] is Sialic acid-binding Ig-like lectin 7 (Homo sapiens) (UniProt Q9Y286). The experiment in a line: Potency index, ratio of test compound IC50 to (2R,4S,5R,6R)-2-(3-(4-([1,1'-biphenyl]-4-yl)-1H-1,2,3-triazol-1-yl)propoxy)-5-acetamido-4-hydroxy-6-((1R,2R)-1,2,3-trihydroxypropyl)tetrahydro-2H-pyran-2-carboxylate Sodium IC50 for competitive inhibition of IgG1-fused human Siglec-7 Fc domain preincubated for 10 mins followed by addition of red blood cells incubated for 20 mins on ice by sandwich FACS analysis. The settings on record: time 30.0 min.
Chain of Sialic acid-binding Ig-like lectin 7 (Homo sapiens) (Q9Y286 whole entry, the tested form may be a part): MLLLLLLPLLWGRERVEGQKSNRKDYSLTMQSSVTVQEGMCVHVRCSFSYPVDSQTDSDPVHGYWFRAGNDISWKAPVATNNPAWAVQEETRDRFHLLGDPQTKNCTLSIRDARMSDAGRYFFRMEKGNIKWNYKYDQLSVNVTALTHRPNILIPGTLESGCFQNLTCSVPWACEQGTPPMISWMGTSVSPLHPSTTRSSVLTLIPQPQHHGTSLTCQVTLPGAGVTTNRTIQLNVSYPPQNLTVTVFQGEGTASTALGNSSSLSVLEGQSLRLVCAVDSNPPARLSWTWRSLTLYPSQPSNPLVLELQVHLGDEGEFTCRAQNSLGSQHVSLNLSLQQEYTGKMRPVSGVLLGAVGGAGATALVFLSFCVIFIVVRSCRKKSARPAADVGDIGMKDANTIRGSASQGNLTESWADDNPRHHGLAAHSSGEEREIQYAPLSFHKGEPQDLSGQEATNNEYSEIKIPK

For data set [4] the target is unchanged. In words: Potency index, ratio of test compound IC50 to (2R,4S,5R,6R)-2-(3-(4-([1,1'-biphenyl]-4-yl)-1H-1,2,3-triazol-1-yl)propoxy)-5-acetamido-6-((1R,2R)-1,2-dihydroxy-3-(methylsulfonamido)propyl)-4-hydroxytetrahydro-2H-pyran-2-carboxylate Sodium IC50 for competitive inhibition of IgG1-fused human Siglec-7 Fc domain preincubated for 10 mins followed by addition of red blood cells incubated for 20 mins on ice by sandwich FACS analysis. The settings on record: time 30.0 min. (In general: Flow cytometry measures light scatter and fluorescence of single cells or particles in a stream.)

The nature of data set [5]: Solubility in PBS. The class given is physicochemical. To be noted: buffer.

A value given as a limit tells only on which side of the number the result lay.

Consider `N[C@H]1[C@H]([C@H](O)[C@H](O)CO)O[C@@](OCCCn2cc(-c3ccc(-c4ccccc4)cc3)nn2)(C(=O)O)C[C@@H]1O`, for which the solubility result in data set [1] and in data set [2] was “Insoluble” each time.
Turning to `CCC(=O)NCC[C@@H](O)[C@@H](O)[C@@H]1O[C@@](OCCCn2cc(-c3ccc(-c4ccccc4)cc3)nn2)(C(=O)O)C[C@H](O)[C@H]1NC(C)=O`, the Ratio IC50 in data set [3] is under 0.5.
Turning to `CC(=O)N[C@H]1[C@H]([C@H](O)[C@H](O)CC(=O)O)O[C@@](OCCCn2cc(-c3ccc(-c4ccccc4)cc3)nn2)(C(=O)O)C[C@@H]1O`, the Ratio IC50 in data set [3] stood at 0.75.
Still for that read-out and setting: in the case of `O=C(CO)N[C@H]1[C@H]([C@H](O)[C@H](O)CO)O[C@@](OCCCn2cc(-c3ccc(-c4ccccc4)cc3)nn2)(C(=O)O)C[C@@H]1O` it was 1.5.
On to `CS(=O)(=O)NC[C@@H](O)[C@@H](O)[C@@H]1O[C@@](OCCCn2cc(-c3ccc(-c4ccccc4)cc3)nn2)(C(=O)O)C[C@H](O)[C@H]1NC(=O)COCc1ccccc1`, for which the Ratio IC50 in data set [4] was 0.3.
On to `O=C(COCc1ccccc1)N[C@H]1[C@H]([C@H](O)[C@H](O)CO)O[C@@](OCCCn2cc(-c3ccc(-c4ccccc4)cc3)nn2)(C(=O)[O-])C[C@@H]1O.[Na+]`, for which the solubility result in data set [5] and in data set [1] was “Insoluble” each time.
For `CS(=O)(=O)NC[C@@H](O)[C@@H](O)[C@@H]1O[C@@](OCCCn2cc(-c3ccc(-c4ccccc4)cc3)nn2)(C(=O)O)C[C@H](O)[C@H]1NC(=O)CF`, the Ratio IC50 in data set [4] was 1.5.
Still for that read-out and setting: under `CS(=O)(=O)NC[C@@H](O)[C@@H](O)[C@@H]1O[C@@](OCCCn2cc(-c3ccc(-c4ccccc4)cc3)nn2)(C(=O)O)C[C@H](O)[C@H]1NC(=O)CO` stands 1.2.
Regarding `O=C(CF)N[C@H]1[C@H]([C@H](O)[C@H](O)CO)O[C@@](OCCCn2cc(-c3ccc(-c4ccccc4)cc3)nn2)(C(=O)O)C[C@@H]1O`, the Ratio IC50 in data set [3] turned out to be 1.6.
With `CC(=O)N[C@H]1[C@H]([C@H](O)[C@H](O)CCNC(=O)Cc2ccccc2)O[C@@](OCCCn2cc(-c3ccc(-c4ccccc4)cc3)nn2)(C(=O)O)C[C@@H]1O`, in data set [3], the Ratio IC50 was under 0.5.
